{
  "source": "patent US12070458B2",
  "about": "“Therapeutic agent composition and method of use, for treatment of mild congnitive impairment, depression, and psychological disorders” (priority 2018, dated 2024)",
  "key": {"[1]": {"test_system": "scopolamine-induced memory impairment", "experiment": "Morris Water Maze, scopolamine-induced memory impairment", "assay_type": "in vivo, Wistar rats", "conditions": "20 mg/kg; daily, oral; scopolamine 0.5 mg/kg i.p."}, "[2]": {"target": "T1, NR2B-subtype receptors (Mus musculus, UniProt P35438+Q01097)", "T1 construct": "from tissue; host or cells: forebrain membrane homogenate of male CD-1 mice", "T1 sequence (Q01097 27-1482, other chains not shown)": "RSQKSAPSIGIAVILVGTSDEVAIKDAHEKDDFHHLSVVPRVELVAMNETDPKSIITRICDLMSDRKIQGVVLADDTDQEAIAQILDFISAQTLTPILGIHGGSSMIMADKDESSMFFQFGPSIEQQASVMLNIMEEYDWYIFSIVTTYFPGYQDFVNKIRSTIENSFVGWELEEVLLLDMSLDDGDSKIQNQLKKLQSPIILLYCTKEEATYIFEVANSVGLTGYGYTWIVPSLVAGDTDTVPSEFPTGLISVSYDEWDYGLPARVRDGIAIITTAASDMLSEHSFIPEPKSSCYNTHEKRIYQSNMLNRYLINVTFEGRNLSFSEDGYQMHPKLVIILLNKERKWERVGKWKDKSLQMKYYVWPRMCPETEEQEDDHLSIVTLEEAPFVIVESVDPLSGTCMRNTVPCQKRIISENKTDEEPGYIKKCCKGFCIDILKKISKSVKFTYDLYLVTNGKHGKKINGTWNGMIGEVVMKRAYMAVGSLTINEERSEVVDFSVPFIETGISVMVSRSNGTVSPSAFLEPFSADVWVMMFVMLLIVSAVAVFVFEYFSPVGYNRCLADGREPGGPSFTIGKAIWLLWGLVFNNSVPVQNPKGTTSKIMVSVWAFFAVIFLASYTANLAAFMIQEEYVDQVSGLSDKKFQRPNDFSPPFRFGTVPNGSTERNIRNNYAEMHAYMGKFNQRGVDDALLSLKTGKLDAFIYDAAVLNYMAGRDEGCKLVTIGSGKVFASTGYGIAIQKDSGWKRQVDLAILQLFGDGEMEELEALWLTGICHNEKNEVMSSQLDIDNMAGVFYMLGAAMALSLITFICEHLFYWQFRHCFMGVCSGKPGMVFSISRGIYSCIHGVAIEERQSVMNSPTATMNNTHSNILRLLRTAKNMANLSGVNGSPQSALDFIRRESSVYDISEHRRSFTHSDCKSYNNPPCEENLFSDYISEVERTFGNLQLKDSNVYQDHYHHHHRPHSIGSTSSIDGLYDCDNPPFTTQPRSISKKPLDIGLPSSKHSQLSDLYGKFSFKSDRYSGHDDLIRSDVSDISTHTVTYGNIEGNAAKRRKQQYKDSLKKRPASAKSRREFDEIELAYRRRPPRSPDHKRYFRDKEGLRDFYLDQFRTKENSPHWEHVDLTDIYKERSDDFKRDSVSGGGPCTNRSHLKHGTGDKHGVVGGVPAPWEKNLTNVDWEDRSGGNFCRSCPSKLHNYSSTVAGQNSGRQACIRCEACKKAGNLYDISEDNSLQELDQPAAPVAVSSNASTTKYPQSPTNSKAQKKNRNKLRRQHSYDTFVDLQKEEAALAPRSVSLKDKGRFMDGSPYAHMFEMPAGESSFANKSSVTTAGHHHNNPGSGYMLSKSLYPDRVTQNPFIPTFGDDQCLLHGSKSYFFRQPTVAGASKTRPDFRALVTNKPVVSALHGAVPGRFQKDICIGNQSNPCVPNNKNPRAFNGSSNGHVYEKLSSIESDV", "experiment": "NR2B receptor occupancy ex vivo (3H Ro 25-6981) after intravenous administration", "assay_type": "in vivo, CD-1 mice", "method": "In this experiment, 8-10 weeks old male CD-1 mice (n=12) were administered intravenously in a vehicle consisting of 10% dimethylacetamide, 40% PEG-400, 30% hydroxypropyl betacyclodextrin, and 30% water with cyclic Prolyl Glycine (0.10 mg: rill, and the forebrains were harvested 15 minutes post-dosing by decapitation. The brain samples were immediately frozen and stored at −80′ C.\nOn the following day, the dosed brain samples were thawed on ice for 20-30 minutes followed by homogenization using Polytron for 10 seconds in cold homogenization buffer composed of 50 mM KH2PO4 (pH adjusted to 7.4 with KOH), 1 mM EDTA, 0.005% Triton X 100 and protease inhibitor cocktail (Fischer Scientific). The crude homogenates were further homogenized using a Bounce homogenizer (Thomas Scientific) and the homogenized membrane aliquots from all animals were […] and stored at −80° C. until further use. The whole homogenization process was performed on ice.\nFor determining occupancy, the membrane homogenates were thawed on ice and then needle homogenized using a 25-gauge needle. […] Non-specific binding was determined using 10 μM Ro 25-6981 added to the wells containing membrane homogenates from vehicle-dosed animals. […]"}, "[3]": {"test_system": "immobility behavior", "experiment": "Mouse Forced Swim Test (mFST)", "assay_type": "in vivo, mice", "conditions": "1 mg/Kg i.v. thirty minutes before swim session", "method": "Forced Swim Test (FST) is an animal model used to assess antidepressant compounds in preclinical studies. The FST was performed similar to the method of Porsolt et al. with modifications (Porsolt R D, Bertin A, Jalfre M. Behavioral despair in mice: a primary screening test for antidepressants. Arch Int Pharmacodyn Thér 1977; 229:327-36).\nIn this experiment, mice are forced to swim in an inescapable cylinder filled with water. Under these conditions, mice will initially try to escape and eventually develop immobility behavior; this behavior is interpreted as a passive stress-coping strategy or depression-like behavior. Swim tanks were positioned inside a box made of plastic. […] The duration of immobility was evaluated during the total 6 min of the test and expressed as duration (sec) of immobility. […]\nIn order to avoid the risk of obtaining the false positive\\negative effects in the FST caused by a possible influence of the tested drugs on the locomotor activity, spontaneous locomotor activity was measured using an animal activity meter Opto-Varimex-4 Auto-Track (Columbus Instruments, USA). […] Spontaneous locomotor activity was evaluated between the 2nd and the 6th min, which corresponds with the time interval analysed in the FST. […]\nDrug levels were 215 nM in the plasma. The NR2B receptor occupancy was determined to be 68%."}},
  "data": [
    {"compound": "O=C1NCC(=O)N2CCC[C@@H]12", "note": "[cPG, cyclic Prolyl Glycine]", "values": [
      {"measurement": "cognitive impairment induced by scopolamine (time to platform)", "setting": "[1]", "result": "significantly reversed"},
      {"measurement": "receptor occupancy at 1 mg/kg", "setting": "[2]; 1 mg/Kg i.v., at the end of FST", "result": 73, "unit": "%"},
      {"measurement": "receptor occupancy at 3 mg/kg", "setting": "[2]; 3 mg/Kg i.v., forebrains harvested 15 minutes post-dosing", "result": 93, "unit": "%"},
      {"measurement": "immobility time", "setting": "[3]", "result": "statistically significant decrease"}
    ]}
  ]
}
